Like-named read-outs stand apart in the source and are kept apart here.
Target: T1, Nanoluciferase-BRD9 fusion protein (3×FLAG-NLuc-BRD9) in SYO-1 cells (Homo sapiens, UniProt Q9H8M2)
T1 construct: expressed in transfected cells; host or cells: SYO-1
T1 sequence (Q9H8M2 1-597): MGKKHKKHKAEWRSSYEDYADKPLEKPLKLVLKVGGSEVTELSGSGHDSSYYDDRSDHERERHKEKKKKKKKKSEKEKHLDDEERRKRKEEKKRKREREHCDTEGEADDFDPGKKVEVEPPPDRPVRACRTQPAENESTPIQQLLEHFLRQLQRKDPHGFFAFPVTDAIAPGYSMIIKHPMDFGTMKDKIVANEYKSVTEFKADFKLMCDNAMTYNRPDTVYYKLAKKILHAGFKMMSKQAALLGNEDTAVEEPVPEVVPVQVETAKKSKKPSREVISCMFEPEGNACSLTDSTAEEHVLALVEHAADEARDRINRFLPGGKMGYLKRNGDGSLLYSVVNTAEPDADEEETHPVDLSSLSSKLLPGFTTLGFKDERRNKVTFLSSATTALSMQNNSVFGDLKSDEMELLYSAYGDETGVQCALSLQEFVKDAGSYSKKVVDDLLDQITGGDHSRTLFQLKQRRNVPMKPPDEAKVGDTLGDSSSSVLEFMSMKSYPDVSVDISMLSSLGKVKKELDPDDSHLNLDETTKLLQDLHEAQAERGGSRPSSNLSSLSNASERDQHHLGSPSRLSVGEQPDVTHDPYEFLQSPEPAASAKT
Experiment: SYO1 BRD9 NanoLuc degradation assay
Format: cell-based
Settings: SYO-1 cells expressing 3×FLAG-NLuc-BRD9, 6 hours incubation, 1 μM top dose, read-out: SYO1 BRD9-NanoLuc degradation IC50
Procedure, shortened: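 Stable SYO-1 line expressing 3×FLAG-NLuc-BRD9 was seeded at 8000 cells/well, then treated next day for 6 h with 10-point 3-fold dilutions (top 1 μM final). Nano-Glo luminescence was read. % inhibition was normalised to DMSO (high control) and 1 μM reference BRD9 degrader (low control).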

Structure (SMILES)	DC50 (Table 6C)	DC50 (Table 6B)
COc1cc(-c2cn(C)c(=O)c3cc(C(=O)NC4CCN(c5ccc6c(c5)C(=O)N(C5CCC(=O)NC5=O)C6)CC4(F)F)oc23)cc(OC)c1CN(C)C (centres unmarked) [Compound D218]	> 0.01 µM	
COc1cc(-c2cn(C)c(=O)c3ccsc23)cc(OC)c1CN1CCC(CN2CCC3(CC2)CN(c2ccc4c(c2)C(=O)N(C2CCC(=O)NC2=O)C4)C3)CC1 (centres unmarked) [Compound D99]	< 0.01 µM	
COc1cc(-c2cn(C)c(=O)c3cc(C(=O)N[C@@H]4CCN(C5CCN(c6ccc7c(c6)C(=O)N(C6CCC(=O)NC6=O)C7)CC5)CC4(F)F)sc23)cc(OC)c1CN(C)C (some centres unmarked) [Compound D162]	< 0.01 µM	
COc1cc(-c2cn(C)c(=O)c3cc(C(=O)NC4CCN(CCCCCOc5ccc6c(c5)CN(C5CCC(=O)NC5=O)C6=O)CC4(F)F)sc23)cc(OC)c1CN(C)C (centres unmarked) [Compound D163]	< 0.01 µM	
COc1cc(-c2cn(C)c(=O)c3cc(C(=O)NC4CC5(CCN(C(=O)CCN6CCN(c7ccc8c(c7)C(=O)N(C7CCC(=O)NC7=O)C8=O)CC6)C5)C4)sc23)cc(OC)c1CN(C)C (centres unmarked) [Compound D72]		< 0.01 µM
COc1cc(-c2cn(C)c(=O)c3ccsc23)cc(OC)c1CN1CCC2(CC1)CN(c1ccc3c(c1)CN(C1CCC(=O)NC1=O)C3=O)C2 (centres unmarked) [Compound D178]	< 0.01 µM	
COc1cc(-c2cn(C)c(=O)c3cc(C(=O)NC4CN(C5CCN(c6ccc7c(c6)C(=O)N(C6CCC(=O)NC6=O)C7=O)CC5)CC4(F)F)sc23)cc(OC)c1CN(C)C (centres unmarked) [Compound D187]	< 0.01 µM	
COc1cc(-c2cn(C)c(=O)c3cc(C(=O)N[C@@H]4CCN(CCN5CCN(c6ccc7c(c6)C(=O)N(C6CCC(=O)NC6=O)C7)CC5)CC4(F)F)sc23)cc(OC)c1CN(C)C (some centres unmarked) [Compound D166]	< 0.01 µM	
COc1cc(-c2cn(C)c(=O)c3ccsc23)cc(OC)c1CN1CCC2(CC1)CN(c1ccc3c(c1)C(=O)N(C1CCC(=O)N(COC(=O)[C@@H](N)C(C)C)C1=O)C3=O)C2 (some centres unmarked) [Compound D107]	< 0.01 µM	
COc1cc(-c2cn(C)c(=O)c3ccsc23)cc(OC)c1CN1CCC2(CN(c3ccc4c(c3)C(=O)N(C3CCC(=O)NC3=O)C4)C2)C(F)(F)C1 (centres unmarked) [Compound D111]	< 0.01 µM	
COc1cc(-c2cn(C)c(=O)c3cc(C(=O)NC4CCN(C5CCN(c6ccc7c(c6)C(=O)N(C6CCC(=O)N(C)C6=O)C7)CC5)CC4(F)F)sc23)cc(OC)c1CN(C)C (centres unmarked) [Compound D142]	> 1 µM	
COc1cc(-c2c(C)n(C)c(=O)c3cc(C(=O)NC4CCN(C)CC4(F)F)sc23)cc(OC)c1CN1CC(CN2CCC3(CC2)CN(c2ccc4c(c2)C(=O)N(C2CCC(=O)NC2=O)C4)C3)C1 (centres unmarked) [Compound D172]	> 1 µM	
COc1cc(-c2cn(C)c(=O)c3cc(C(=O)NC4CCN(C(=O)CN5CCC6(C5)CN(c5ccc7c(c5)C(=O)N(C5CCC(=O)NC5=O)C7=O)C6)CC4(F)F)sc23)cc(OC)c1CN(C)C (centres unmarked) [Compound D45]		> 1 µM
CCc1cc(OC)cc(-c2cn(C)c(=O)c3cc(C(=O)NC4CCN(c5ccc6c(c5)C(=O)N(C5CCC(=O)NC5=O)C6)CC4(F)F)sc23)c1 (centres unmarked) [Compound D129]	< 0.01 µM	
COc1cc(-c2cn(C)c(=O)c3cc(C(=O)NC4CCN(C(=O)CN5CCC6(CC5)CN(c5ccc7c(c5)CN(C5CCC(=O)NC5=O)C7=O)C6)CC4(F)F)sc23)cc(OC)c1CN(C)C (centres unmarked) [Compound D18]		< 0.01 µM
COc1cc(-c2cn(C)c(=O)c3c(C)csc23)cc(OC)c1CN1CCC(CN2CCC3(CC2)CC(Oc2ccc4c(c2)C(=O)N(C2CCC(=O)NC2=O)C4=O)C3)CC1 (centres unmarked) [Compound D160]	< 0.01 µM	
COc1cc(-c2cn(C)c(=O)c3cc(C(=O)NC4C[C@@H]5CN(CCN6CCN(c7ccc8c(c7)C(=O)N(C7CCC(=O)NC7=O)C8=O)CC6)C[C@H]45)sc23)cc(OC)c1CN(C)C (some centres unmarked) [Compound D64]		> 0.1 µM
COc1cc(-c2cn(C)c(=O)c3cc(C#N)sc23)cc(OC)c1CN1CCC2(CC1)CN(c1ccc3c(c1)C(=O)N(C1CCC(=O)NC1=O)C3)C2 (centres unmarked) [Compound D139]	< 0.01 µM	

Structure (SMILES)	DC50 (Table 6C)	DC50 (Table 6B)
COc1cc(Cl)cc(-c2cn(C)c(=O)c3cc(C(=O)NC4CCN(c5ccc6c(c5)C(=O)N(C5CCC(=O)NC5=O)C6)CC4)sc23)c1 (centres unmarked) [Compound D93]	< 0.01 µM	
COc1cc(-c2cn(C)c(=O)c3cc(C(=O)NC4CC5(CCN(CCN6CCN(c7ccc8c(c7)C(=O)N([C@H]7CCC(=O)NC7=O)C8=O)CC6)C5)C4)sc23)cc(OC)c1CN(C)C (some centres unmarked) [Compound D66]		< 0.01 µM
COc1cc(-c2cn(C)c(=O)c3cc(C(=O)NC4CC5(CCN(C(=O)CCN6CCN(c7ccc8c(c7)C(=O)N(C7CCC(=O)NC7=O)C8=O)CC6)CC5)C4)sc23)cc(OC)c1CN(C)C (centres unmarked) [Compound D40]		< 0.01 µM
COc1cc(-c2cn(C)c(=O)c3cc(C(=O)NC4CCN(C5CCN(c6ccc7c(c6)C(=O)N(C6CCC(=O)NC6=O)C7)CC5(F)F)CC4)sc23)cc(OC)c1CN(C)C (centres unmarked) [Compound D126]	< 0.01 µM	
COc1cc(-c2cn(C)c(=O)c3cc(C(=O)NC4CN(c5ccc6c(c5)C(=O)N(C5CCC(=O)NC5=O)C6)CC4(F)F)sc23)cc(OC)c1CN(C)C (centres unmarked) [Compound D177]	< 0.01 µM	
COc1cc(-c2cn(C)c(=O)c3cc(C(=O)NC4CCN(C5CCN(c6ccn7c(=O)n(C8CCC(=O)NC8=O)nc7c6)CC5)CC4(F)F)sc23)cc(OC)c1CN(C)C (centres unmarked) [Compound D179]	< 0.01 µM	
COc1cc(-c2cn(C)c(=O)c3cc(C(=O)N[C@@H]4CCN(c5ccc6c(c5)CN(C5CCC(=O)NC5=O)C6=O)CC4(F)F)sc23)cc(OC)c1CN(C)C (some centres unmarked) [Compound D155]	< 0.01 µM	
COc1cc(-c2cn(C)c(=O)c3cc(C(=O)NC4CC5(CCN(CCN6CCN(c7ccc8c(c7)C(=O)N(C7CCC(=O)NC7=O)C8=O)CC6)CC5)C4)sc23)cc(OC)c1CN(C)C (centres unmarked) [Compound D41]		< 0.01 µM
COc1cc(-c2cn(C)c(=O)c3cc(C(=O)N[C@H]4CCN(CCN5CCN(c6ccc7c(c6)C(=O)N(C6CCC(=O)NC6=O)C7)CC5)CC4(F)F)sc23)cc(OC)c1CN(C)C (some centres unmarked) [Compound D112]	< 0.01 µM	
COc1cc(-c2cn(C)c(=O)c3cscc23)cc(OC)c1CN1CCC2(CC1)CN(c1ccc3c(c1)C(=O)N(C1CCC(=O)NC1=O)C3)C2 (centres unmarked) [Compound D216]	< 0.01 µM	
COc1cc(-c2cn(C)c(=O)c3ccsc23)cc(OC)c1CN1CC(Oc2ccc3c(c2)C(=O)N(C2CCC(=O)NC2=O)C3=O)C1 (centres unmarked) [Compound D169]	< 0.01 µM	
Cn1cc(-c2ccc(-c3ccc4c(c3)C(=O)N(C3CCC(=O)NC3=O)C4)c(C(F)(F)F)c2)c2sccc2c1=O (centres unmarked) [Compound D125]	< 0.01 µM	
COc1cc(-c2cn(C)c(=O)c3cc(C(=O)NC4CCN(CCN5CCC(c6ccc7c(c6)CN(C6CCC(=O)NC6=O)C7=O)CC5)CC4(F)F)sc23)cc(OC)c1CN(C)C (centres unmarked) [Compound D195]	< 0.01 µM	
COc1cc(-c2cn(C)c(=O)c3cc(C(=O)NC4CCC5CN(CCCN6CCN(c7ccc8c(c7)C(=O)N(C7CCC(=O)NC7=O)C8=O)CC6)CC54)sc23)cc(OC)c1CN(C)C (centres unmarked) [Compound D37]		< 0.01 µM
Cn1cc(-c2cccc(C(F)(F)F)c2)c2oc(C(=O)NC3CCN(c4ccc5c(c4)C(=O)N(C4CCC(=O)NC4=O)C5)CC3)cc2c1=O (centres unmarked) [Compound D211]	> 0.01 µM	
COc1cc(-c2cn(C)c(=O)c3cc(C(=O)N[C@@H]4CCN(c5ccc6c(c5)C(=O)N(C5CCC(=O)NC5=O)C6)CC4(F)F)sc23)cc(OC)c1CN(C)C (some centres unmarked) [Compound D156]	< 0.01 µM	
COc1cc(-c2cn(C)c(=O)c3cc(C#N)sc23)cc(OC)c1CN1CC(C#Cc2ccc3c(c2)C(=O)N(C2CCC(=O)NC2=O)C3)C1 (centres unmarked) [Compound D91]	< 0.01 µM	

From patent US12686687B2, “Compounds and uses thereof” (Foghorn Therapeutics Inc., priority 2019, dated 2026)
